Common to all, as to assay type: biochemical
In one assay the target is T1, AKT1 (Homo sapiens, UniProt P31749).
T1 construct: purchased SignalChem
The experiment in a line: AKT Kinase Assay (IMAP fluorescent polarisation) vs AKT1. Particulars: activated AKT1, FAM Crosstide substrate. A digest of the protocol:
(§1)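 IMAP fluorescence-polarisation read-out (485/528 nm) of 5′FAM-Crosstide phosphorylation; IC50 fitted by non-linear regression from % inhibition against vehicle. Fourteen-point half-log compound dilutions sat 45 min at room temperature with activated isoform at linear-range amount. ATP and substrate followed for 1 h, then a 1 h binding-reagent stop.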

The next assay addresses T2, AKT2 (Homo sapiens, UniProt P31751).
T2 construct: purchased SignalChem
Put plainly: AKT Kinase Assay (IMAP fluorescent polarisation) vs AKT2. Particulars: activated AKT2, FAM Crosstide substrate. An outline of the steps:
as §1

A further assay addresses T3, AKT3 (Homo sapiens, UniProt Q9Y243).
T3 construct: purchased SignalChem
The experiment in a line: AKT Kinase Assay (IMAP fluorescent polarisation) vs AKT3. The conditions noted are these: activated AKT3, FAM Crosstide substrate. An outline of the steps: as §1

Structures are written as SMILES. Counter-ions that a name gives are not always drawn.

T1 sequence (P31749 whole entry): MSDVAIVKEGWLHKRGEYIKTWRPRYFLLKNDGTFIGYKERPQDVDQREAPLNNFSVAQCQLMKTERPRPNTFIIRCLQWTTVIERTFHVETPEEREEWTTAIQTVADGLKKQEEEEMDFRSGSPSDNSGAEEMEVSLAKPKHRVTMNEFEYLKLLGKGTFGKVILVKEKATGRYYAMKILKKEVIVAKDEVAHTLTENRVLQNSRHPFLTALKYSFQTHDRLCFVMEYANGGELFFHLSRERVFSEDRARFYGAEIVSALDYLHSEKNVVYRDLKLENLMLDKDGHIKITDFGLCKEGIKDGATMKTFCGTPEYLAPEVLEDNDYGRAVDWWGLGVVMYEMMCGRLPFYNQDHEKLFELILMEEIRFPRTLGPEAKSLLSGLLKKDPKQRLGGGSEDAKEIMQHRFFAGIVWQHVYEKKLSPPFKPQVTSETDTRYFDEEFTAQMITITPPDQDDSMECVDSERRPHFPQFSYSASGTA
T3 sequence (Q9Y243 whole entry): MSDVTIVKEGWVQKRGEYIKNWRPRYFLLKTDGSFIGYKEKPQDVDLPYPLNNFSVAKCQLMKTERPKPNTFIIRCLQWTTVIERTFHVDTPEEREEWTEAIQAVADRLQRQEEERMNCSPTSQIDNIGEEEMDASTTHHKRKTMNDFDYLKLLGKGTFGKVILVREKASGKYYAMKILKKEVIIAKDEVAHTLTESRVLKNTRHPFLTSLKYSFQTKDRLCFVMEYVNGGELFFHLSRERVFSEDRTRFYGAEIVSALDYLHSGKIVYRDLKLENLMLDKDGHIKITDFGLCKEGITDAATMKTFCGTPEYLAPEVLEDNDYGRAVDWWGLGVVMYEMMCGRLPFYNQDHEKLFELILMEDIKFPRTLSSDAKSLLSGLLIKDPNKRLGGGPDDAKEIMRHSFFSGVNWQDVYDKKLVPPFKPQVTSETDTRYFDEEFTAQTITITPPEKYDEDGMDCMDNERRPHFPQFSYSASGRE
T2 sequence (P31751 whole entry): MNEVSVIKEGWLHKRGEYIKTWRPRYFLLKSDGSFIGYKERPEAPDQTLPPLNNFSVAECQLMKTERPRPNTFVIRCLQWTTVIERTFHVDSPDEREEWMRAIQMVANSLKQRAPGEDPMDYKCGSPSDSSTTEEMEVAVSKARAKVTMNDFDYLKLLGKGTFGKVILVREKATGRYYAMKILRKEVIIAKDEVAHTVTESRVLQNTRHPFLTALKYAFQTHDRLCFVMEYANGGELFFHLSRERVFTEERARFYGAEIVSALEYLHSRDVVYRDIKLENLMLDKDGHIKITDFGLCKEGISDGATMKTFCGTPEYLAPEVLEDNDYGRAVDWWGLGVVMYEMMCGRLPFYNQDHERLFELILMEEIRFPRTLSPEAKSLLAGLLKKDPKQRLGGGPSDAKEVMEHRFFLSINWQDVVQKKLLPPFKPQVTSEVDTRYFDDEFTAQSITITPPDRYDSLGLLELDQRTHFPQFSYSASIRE

One may read the IC50 as the concentration that gives 50% inhibition. In the case of `CNc1nc2oc(-c3ccc(C4(N)CCC4)cc3)c(-c3ccccc3)c2c(=O)n1CC(F)(F)F` [Example 122, 6-(4-(1-Aminocyclobutyl)phenyl)-2-(methylamino)-5-phenyl-3-(2,2,2-trifluoroethyl)furo[2,3-d]pyrimidin-4(3H)-one], the IC50 at AKT1 was 100 to 1000 nM; on AKT2, at most 100 nM; at AKT3, 1 to 10 µM.

Consider `Cc1nc2oc(-c3ccc(C4(N)CCC4)cc3)c(-c3ccccc3)c2c(=O)n1CC(F)(F)F` [Example 123, 6-(4-(1-Aminocyclobutyl)phenyl)-2-methyl-5-phenyl-3-(2,2,2-trifluoroethyl)furo[2,3-d]pyrimidin-4(3H)-one], for which the values for the IC50 at AKT1, on AKT2 and on AKT3 were 100 to 1000 nM, at most 100 nM and 1 to 10 µM, respectively.

Consider `Cn1c(=O)[nH]c2oc(-c3ccc(C4(N)CCC4)cc3)c(-c3ccccc3)c2c1=O` [Example 124, 6-(4-(1-Aminocyclobutyl)phenyl)-3-methyl-5-phenylfuro[2,3-d]pyrimidine-2,4(1H,3H)-dione hydrochloride], for which the figures for the IC50 on AKT1, on AKT2 and on AKT3 were 100 to 1000 nM, 100 to 1000 nM and above 10 µM, respectively.

With `Cn1c(=O)c2c(-c3ccccc3)c(-c3ccc(C4(N)CCC4)cc3)oc2n(C)c1=O` [Example 125, 6-(4-(1-Aminocyclobutyl)phenyl)-1,3-dimethyl-5-phenylfuro[2,3-d]pyrimidine-2,4(1H,3H)-dione], the figures for the IC50 at AKT1, at AKT2 and at AKT3 were 100 to 1000 nM, 1000 to 10000 nM and above 10 µM, respectively.

Regarding `COc1nccc2c(-c3ccccc3)c(-c3ccc(C4(N)CCC4)cc3)oc12` [Example 126, 1-(4-(7-Methoxy-3-phenylfuro[2,3-c]pyridin-2-yl)phenyl)cyclobutanamine], the IC50 at AKT1 is 100 to 1000 nM; at AKT2, 100 to 1000 nM; at AKT3 it was above 10 µM.

`COc1nccc2c(I)c(-c3ccc(C4(N)CCC4)cc3)oc12` [Example 127, 1-(4-(3-Iodo-7-methoxyfuro[2,3-c]pyridin-2-yl)phenyl)cyclobutanamine]: the IC50 is above 10000 nM at AKT1, 1000 to 10000 nM on AKT2 and above 10 µM on AKT3.

In the case of `NC1(c2ccc(-c3oc4c(=O)[nH]ccc4c3-c3ccccc3)cc2)CCC1` [Example 128, 2-(4-(1-Aminocyclobutyl)phenyl)-3-phenylfuro[2,3-d]pyridin-7(6H)-one], the IC50 lay within 100 to 1000 nM on AKT1, 1000 to 10000 nM on AKT2 and 1 to 10 µM on AKT3.

Take `Cn1ccc2c(-c3ccccc3)c(-c3ccc(C4(N)CCC4)cc3)oc2c1=O` [Example 129, 2-(4-(1-Aminocyclobutyl)phenyl)-6-methyl-3-phenylfuro[2,3-c]pyridin-7(6H)-one]: the half-maximal inhibitory concentration (IC50) on AKT1 was 100 to 1000 nM; at AKT2, 100 to 1000 nM; at AKT3 it was 1 to 10 µM.

Consider `NC1(c2ccc(-c3oc4c(=O)n(CCF)ccc4c3-c3ccccc3)cc2)CCC1` [Example 130, 2-(4-(1-Aminocyclobutyl)phenyl)-6-(2-fluoroethyl)-3-phenylfuro[2,3-c]pyridin-7(6H)-one], for which the half-inhibitory concentration (IC50) was 1000 to 10000 nM on AKT1, 100 to 1000 nM at AKT2 and above 10 µM on AKT3.

Consider `NC1(c2ccc(-c3oc4c(=O)n(CCCO)ccc4c3-c3ccccc3)cc2)CCC1` [Example 131, 2-(4-(1-Aminocyclobutyl)phenyl)-6-(3-hydroxypropyl)-3-phenylfuro[2,3-c]pyridin-7(6H)-one], for which the IC50 is 1000 to 10000 nM at AKT1, 100 to 1000 nM on AKT2 and 1 to 10 µM at AKT3.

Turning to `COc1ncc(Br)c2c(-c3ccccc3)c(-c3ccc(C4(N)CCC4)cc3)oc12` [Example 132, 1-(4-(4-Bromo-7-methoxy-3-phenylfuro[2,3-c]pyridin-2-yl)phenyl)cyclobutanamine], the IC50 on AKT1 was 100 to 1000 nM; on AKT2 it was 100 to 1000 nM; on AKT3, above 10 µM.

For `NC1(c2ccc(-c3oc4ccnc(-c5cn[nH]c5)c4c3-c3ccccc3)cc2)CCC1` [Example 133, 1-(4-(3-Phenyl-4-(1H-pyrazol-4-yl)furo[3,2-c]pyridin-2-yl)phenyl)cyclobutanamine], the concentration for half-maximal inhibition (IC50) on AKT1 is 1000 to 10000 nM; at AKT2 it was 1000 to 10000 nM; at AKT3 it was above 10 µM.

`NC1(c2ccc(-c3oc4ncc(Cl)nc4c3-c3ccccc3)cc2)CCC1` [Example 134, 1-(4-(2-Chloro-7-phenylfuro[2,3-b]pyrazin-6-yl)phenyl)cyclobutanamine]: the values for the IC50 at AKT1, at AKT2 and on AKT3 were 100 to 1000 nM, 1000 to 10000 nM and above 10 µM, respectively.

Turning to `NC1(c2ccc(-c3oc4ncc(-c5cn[nH]c5)nc4c3-c3ccccc3)cc2)CCC1` [Example 135, 1-(4-(7-Phenyl-2-(1H-pyrazol-4-yl)furo[2,3-b]pyrazin-6-yl)phenyl)cyclobutanamine], the IC50 was 100 to 1000 nM at AKT1, 100 to 1000 nM on AKT2 and 0.1 to 1 µM at AKT3.

Turning to `Cn1cc(-c2cnc3oc(-c4ccc(C5(N)CCC5)cc4)c(-c4ccccc4)c3n2)cn1` [Example 136, 1-(4-(2-(1-Methyl-1H-pyrazol-4-yl)-7-phenylfuro[2,3-b]pyrazin-6-yl)phenyl)cyclobutanamine], the values for the IC50 at AKT1, on AKT2 and on AKT3 were 1000 to 10000 nM, 1000 to 10000 nM and above 10 µM, respectively.

As to `Cn1nccc1-c1cnc2oc(-c3ccc(C4(N)CCC4)cc3)c(-c3ccccc3)c2n1` [Example 137, 1-(4-(2-(1-methyl-1H-pyrazol-5-yl)-7-phenylfuro[2,3-b]pyrazin-6-yl)phenyl)cyclobutanamine], the IC50 on AKT1 was 100 to 1000 nM; on AKT2, 1000 to 10000 nM; on AKT3 it was above 10 µM.

Take `NC1(c2ccc(-c3oc4ncc(C5CC5)nc4c3-c3ccccc3)cc2)CCC1` [Example 138, 1-(4-(2-Cyclopropyl-7-phenylfuro[2,3-b]pyrazin-6-yl)phenyl)cyclobutanamine]: the IC50 fell in the range of 100 to 1000 nM at AKT1, 100 to 1000 nM on AKT2 and 1 to 10 µM on AKT3.

On to `NC1(c2ccc(-c3oc4ncc(-c5ccccc5)nc4c3-c3ccccc3)cc2)CCC1` [Example 139, 1-(4-(2,7-Diphenylfuro[2,3-b]pyrazin-6-yl)phenyl)cyclobutanamine, HCl], for which the IC50 fell in the range of 1000 to 10000 nM at AKT1, 1000 to 10000 nM on AKT2 and 1 to 10 µM at AKT3.

Regarding `NC1(c2ccc(-c3oc4ncc(-c5cncnc5)nc4c3-c3ccccc3)cc2)CCC1` [Example 140, 1-(4-(7-Phenyl-2-(pyrimidin-5-yl)furo[2,3-b]pyrazin-6-yl)phenyl)cyclobutanamine], the IC50 on AKT1 is 1000 to 10000 nM; at AKT2, 100 to 1000 nM; on AKT3, above 10 µM.

Turning to `NC1(c2ccc(-c3oc4ncc(-c5ccccn5)nc4c3-c3ccccc3)cc2)CCC1` [Example 141, 1-(4-(7-Phenyl-2-(pyridin-2-yl)furo[2,3-b]pyrazin-6-yl)phenyl)cyclobutanamine], the IC50 was 1000 to 10000 nM on AKT1, 1000 to 10000 nM at AKT2 and above 10 µM at AKT3.

Turning to `NC1(c2ccc(-c3oc4ncc(COCc5ccccc5)nc4c3-c3ccccc3)cc2)CCC1` [Example 142, 1-(4-(2-(Benzyloxymethyl)-7-phenylfuro[2,3-b]pyrazin-6-yl)phenyl)cyclobutanamine], the half-inhibitory concentration (IC50) is 100 to 1000 nM at AKT1, 100 to 1000 nM on AKT2 and 1 to 10 µM at AKT3.

On to `Cc1n[nH]c(C)c1-c1cnc2oc(-c3ccc(C4(N)CCC4)cc3)c(-c3ccccc3)c2n1` [Example 143, 1-(4-(2-(3,5-Dimethyl-1H-pyrazol-4-yl)-7-phenylfuro[2,3-b]pyrazin-6-yl)phenyl)cyclobutanamine], for which the IC50 on AKT1 is 1000 to 10000 nM; at AKT2, 1000 to 10000 nM; on AKT3, above 10 µM.

On to `NC1(c2ccc(-c3oc4ncc(-c5ccn[nH]5)nc4c3-c3ccccc3)cc2)CCC1` [Example 144, 1-(4-(7-Phenyl-2-(1H-pyrazol-5-yl)furo[2,3-b]pyrazin-6-yl)phenyl)cyclobutanamine], for which the results for the IC50 on AKT1, at AKT2 and at AKT3 were 1000 to 10000 nM, 1000 to 10000 nM and above 10 µM, respectively.

As to `NC1(c2ccc(-c3oc4ncc(CO)nc4c3-c3ccccc3)cc2)CCC1` [Example 145, (6-(4-(1-Aminocyclobutyl)phenyl)-7-phenylfuro[2,3-b]pyrazin-2-yl)methanol], the values for the IC50 on AKT1, at AKT2 and on AKT3 were 1000 to 10000 nM, 1000 to 10000 nM and above 10 µM, respectively.

Consider `C#Cc1cnc2oc(-c3ccc(C4(N)CCC4)cc3)c(-c3ccccc3)c2n1` [Example 146, 1-(4-(2-Ethynyl-7-phenylfuro[2,3-b]pyrazin-6-yl)phenyl)cyclobutanamine], for which the IC50 at AKT1 is 1000 to 10000 nM; on AKT2 it was 1000 to 10000 nM; on AKT3, above 10 µM.

As to `NC1(c2ccc(-c3oc4ncc(-c5cnn[nH]5)nc4c3-c3ccccc3)cc2)CCC1` [Example 147, 1-(4-(7-Phenyl-2-(1H-1,2,3-triazol-5-yl)furo[2,3-b]pyrazin-6-yl)phenyl)cyclobutanamine], the IC50 on AKT1 is 1000 to 10000 nM; on AKT2, 1000 to 10000 nM; on AKT3 it was above 10 µM.

With `NC1(c2ccc(-c3oc4ncc(NCCO)nc4c3-c3ccccc3)cc2)CCC1` [Example 148, 2-(6-(4-(1-Aminocyclobutyl)phenyl)-7-phenylfuro[2,3-b]pyrazin-2-ylamino)ethanol], the IC50 on AKT1 was 100 to 1000 nM; on AKT2, 1000 to 10000 nM; on AKT3, above 10 µM.

For `Cc1cnc2oc(-c3ccc(C4(N)CCC4)cc3)c(-c3ccccc3)c2n1` [Example 149, 1-(4-(2-Methyl-7-phenylfuro[2,3-b]pyrazin-6-yl)phenyl)cyclobutanamine], the values for the IC50 at AKT1, on AKT2 and on AKT3 were 100 to 1000 nM, 1000 to 10000 nM and above 10 µM, respectively.

Source of the values: patent US20120309739A1, “AKT / PKB INHIBITORS” (ALMAC DISCOVERY LIMITED, priority 2009, published 2012).
